Results reported in patent publication US6432403B1, “Antibodies to polypeptides having prenylcysteine carboxyl methlytransferase activity or inhibiting activity” (New York University, priority 1997, dated 2002).
Entries after “also recorded” stand apart in the source; their conditions may differ.

Assays:
human pcCMT = molecular target: T1, human pcCMT (Homo sapiens, UniProt O60725); assay: Carboxyl methylation of Rho GTPases by COS-1 cell membranes expressing human pcCMT (S-adenosyl-L-[methyl-3H]methionine labeling, SDS-PAGE, fluorography); type: biochemical; details: COS-1 membranes transfected with HL60 cDNA; read-out: ED50 for block of pcCMT activity toward Rho GTPases
T1 construct: The 3.6-kb full-length HL60 pcCMT cDNA and an 852-bp cDNA fragment comprising the ORF were subcloned into the eukaryotic expression vectors; expressed in transfected cells; host or cells: COS-1 cells (pCDM8 vector, DEAE-dextran transfection); light membranes after nitrogen cavitation
T1 sequence (O60725 whole entry, the tested form may be a part): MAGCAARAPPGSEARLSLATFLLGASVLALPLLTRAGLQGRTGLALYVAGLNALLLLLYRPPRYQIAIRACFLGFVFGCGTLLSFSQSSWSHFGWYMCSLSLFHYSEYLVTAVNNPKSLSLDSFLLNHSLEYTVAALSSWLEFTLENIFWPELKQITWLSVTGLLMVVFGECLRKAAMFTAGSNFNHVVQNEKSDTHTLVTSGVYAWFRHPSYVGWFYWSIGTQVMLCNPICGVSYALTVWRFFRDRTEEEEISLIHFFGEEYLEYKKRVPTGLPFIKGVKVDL
Experimental: (§1) FIGS. 5A and 5B show the carboxyl methylation of ras-related GTPases by COS-1 cell membranes expressing ectopic human pcCMT. In FIG. 5A, neutrophil cytosol (CS) containing a mixture of Rho family proteins complexed with Rho-GDI (lanes 2, 3, 6, 7, 10, 11) or RhoA-GDI complexes partially purified from CS (lanes 4, 8, 12) were incubated with the methyl donor S-adenosyl-L-[methyl-^3H]methionine and light membranes derived from nitrogen cavitation of human neutrophils (lanes 1-4) or COS-1 cells transiently transfected with either human pcCMT (lanes 5-8) or vector alone (lanes 9-12). In some reactions (lanes 3, 7, 11) a competitive pcCMT inhibitor, AFC, was included. Reaction products were analyzed by SDS-PAGE and fluorography. The position of carboxyl methylated […] is indicated as is the position of protein phosphatase 2a (PP2a) that is methylated on a C-terminal leucine by an enzyme unrelated to pcCMT (Lee et al, 1993). […] Carboxyl methyltransferase activity was quantitated in membranes of COS-1 cells transfected with HL60 pcCMT using prenylcysteine analogs as defined substrates (Philips et al, 1995). […]

[1] = molecular target: T2, endogenous neutrophil pcCMT (Homo sapiens, UniProt O60725); assay: Carboxyl methylation of Rho GTPases by human neutrophil membranes; type: biochemical; details: stated identical to the recombinant enzyme; read-out: ED50 for endogenous neutrophil pcCMT
T2 construct: endogenous in cells; host or cells: human peripheral blood neutrophils, light membranes (nitrogen cavitation, sucrose density centrifugation)
T2 sequence (O60725 whole entry): as the sequence (O60725 whole entry, the tested form may be a part) above
Experimental: as §1

GFP-Nras = assay: Subcellular localization of GFP-Nras in transfected COS-1 cells (epifluorescence microscopy); type: cell-based; details: 200 μM during the 24-hour transfection
Experimental: FIGS. 8A-8C show the effect of a pcCMT inhibitor (AFC) on the subcellular localization of Nras. In FIG. 8A, COS-1 cells were transiently transfected with GFP-Nras and observed live at 24 hours by epifluorescence microscopy to reveal both surface membrane (arrowheads) and intense perinuclear (Golgi) fluorescence. The position of the […] is marked (N). […] Bars indicate […].
Expression of Recombinant pcCMT: The 3.6-kb full-length HL60 pcCMT cDNA and an 852-bp cDNA fragment comprising the ORF were subcloned into the eukaryotic expression vectors pCDM8 and pcDNA3.1 (Invitrogen, Carlsbad, Calif.). Myc-tagged pcCMT was made by adding a sequence encoding the 10-amino acid epitope of c-Myc recognized by monoclonal antibody 9E10 to the C terminus of pcCMT using patch PCR and subcloning into pcDNA3.1. pcCMT tagged at the C terminus with GFP was generated by subcloning the pcCMT ORF into the expression vector pGFP-N3 (Clontech). For pcCMT enzymatic assays, COS-1 cells were grown in 10-cm dishes and transfected with pcCMT with DEAE-dextran as described (Aruffo et al, 1987). For fluorescence microscopy, exponentially growing COS-1, CHO, and NIH3T3 cells were plated the day prior to transfection at 50-60% confluence and transfected with 2 μg of DNA using LipofectAMINE (Life Technologies, Inc.), Gaithersburg, Md.) according to the manufacturer's instructions. […]

- EC50 (human pcCMT): 10 µM
- EC50 [1]: 10 µM
Structure (SMILES): CC(=O)N[C@@H](CSC/C=C(\C)CC/C=C(\C)CCC=C(C)C)C(=O)O [AFC, N-acetyl-S-trans,trans-farnesyl-L-cysteine]
- Effect on membrane localization of GFP-Nras (GFP-Nras): blocked; also recorded: predominantly cytosolic localization
